Laboratory results as given in PubChem BioAssay (NCI).
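48-hour exposure; five concentrations; linearly interpolated endpoints. GI50: concentration for 50% inhibition of growth. TGI: total growth inhibition.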 Where a SMILES comes first, the peptide text is derived from it. The star is where a group is joined. Cbz = O=C(OCc1ccccc1)*; CH2Cl = ClC*

Each molecule was assayed on SK-OV-3 ovarian (assay: DTP human tumour cell line panel, 48 h).

Compound	GI50	TGI
COc1cc(F)ccc1-c1ncnc(Nc2cccc(CS(C)(=N)=O)c2)n1 (stereo not given)	2.9 µM	> 100 µM
CS(=O)(=O)CCNCc1nc(-c2ccc3ncnc(Nc4ccc(OCc5cccc(C(F)(F)F)c5)cc4)c3c2)cs1	6.01 µM	> 21.6 µM
CC(C)CC(NC(=O)OCc1ccccc1)C(=O)NC(Cc1ccccc1)C(=O)CCl (stereo not drawn) (Cbz-Leu-Phe-CH2Cl; configuration not given here)	–	16.1 µM
[Cl][Hg][c]1cc[c]([Hg][Cl])o1	15 µM	77.6 µM
CCOC(=O)C(Cc1ccc(CCCC(=O)NCCC(=O)Nc2ccc3nc(C)sc3c2)cc1)C(=O)OCC	> 100 µM	> 100 µM
NCCNc1c2c(c(NCCN)c3[nH]ccc13)C(=O)c1ccccc1C2=O	0.79 µM	5.52 µM
Cc1c2c(C#N)nccc2c(C)c2c1c1ccccc1n2Cc1ccccc1	–	> 100 µM
COc1cc(Cn2c(-c3ccccc3)c(Cl)c3c2-c2oncc2CC3)cc(OC)c1	15.2 µM	> 100 µM
COc1ccc(-c2nn(-c3ccc(NC(=O)c4ccc(Cl)c(Cl)c4)cc3)cc2-c2ccncc2)cc1Cl	4.29 µM	> 50 µM
O=C(CC1(O)C(=O)N(Cc2ccccc2)c2ccc(F)cc21)c1ccc(C(=O)NCC2CCC3(CC2)OOC2(CCCCC2)OO3)cc1 (stereo not given)	2.9 µM	> 24 µM
COc1cc2c3c(n(C)c(=O)c2cc1OC)-c1cc2c(cc1/C3=C\CN)OCO2	0.412 µM	–
CN(C)C(n1cc2c(c1)-c1ccc(Cl)cc1C(c1ccccc1F)=NC2)n1cc2c(c1)-c1ccc(Cl)cc1C(c1ccccc1F)=NC2	–	> 100 µM
COc1ccc(/C=C2/N=C(c3ccccc3)N(c3c(C)n(C)n(-c4ccccc4)c3=O)C2=O)cc1OC	> 100 µM	> 100 µM
C[C@@H]1CC[C@@H]2[C@@H]1[C@H](OC(=O)/C=C/c1ccccc1)[C@]1(C3CCCCC3)C[C@@H](OC(=O)CO)[C@@]2(C)O1	6.71 µM	20.2 µM
CCn1c2ccccc2c2cc(NC(=O)Nc3ccc([N+](=O)[O-])cc3C)ccc21	18.1 µM	> 100 µM
COc1cccc2c1C(=O)c1c(O)c3c(c(O)c1C2=O)C[C@](O)(C(=O)CO)C[C@H]3O[C@@H]1C[C@@H](NC(=O)CCCCCN(C)C2(c3ccc(F)cc3)CC3CCC2C3)[C@H](O)[C@@H](C)O1 (stereo not given in full)	7.46 µM	14.7 µM
CCSc1ncnc2c1ncn2C1OC(CO)C(O)C1O (stereo not given)	0.754 µM	> 100 µM
O=C(CSc1nc2ccccc2nc1-c1ccccc1)Nc1ccc(F)cc1	35 µM	> 100 µM
CC[C@H]1[C@@H]2C=C[C@@H]3[C@H]4C/C=C\C(=O)NCCC[C@@H]5NC(=O)/C(=C(O)/C=C/[C@@H]4C[C@@H]3[C@H]2C[C@H]1C)C5=O	1.73 µM	3.48 µM

What follows are molecules tested on NCI-H460 lung (assay: DTP human tumour cell line panel, 48 h).

Compound	GI50	TGI
O=C(N[C@@H](c1ccc(Cl)c(Cl)c1)C1CNC1)c1ccc2cnccc2c1	0.214 µM	11 µM
O=C1OCC2=C1C(c1cccc(Br)c1)c1cc3c(cc1N2CCO)CCC3 (stereo not given)	0.101 µM	5.19 µM
Nc1nc(/C=C\c2ccc([N+](=O)[O-])s2)nc(N2CCCC2)n1	3.68 µM	16.1 µM
CC(=O)OC12C=CC(=O)N1c1ccccc1C(=O)O2 (stereo not given)	–	> 100 µM
Oc1cccnc1[Se]	–	> 100 µM
CC(C)Oc1ccc2cc(-c3nn(CC4CCNCC4)c4ncnc(N)c34)ccc2c1	14.9 µM	28.5 µM
COc1cc(F)ccc1-c1ncnc(Nc2cccc(CS(C)(=N)=O)c2)n1 (stereo not given)	1.79 µM	> 100 µM
CS(=O)(=O)CCNCc1nc(-c2ccc3ncnc(Nc4ccc(OCc5cccc(C(F)(F)F)c5)cc4)c3c2)cs1	> 25 µM	> 25 µM
CC(C)CC(NC(=O)OCc1ccccc1)C(=O)NC(Cc1ccccc1)C(=O)CCl (stereo not drawn) (Cbz-Leu-Phe-CH2Cl; configuration not given here)	–	18 µM
[Cl][Hg][c]1cc[c]([Hg][Cl])o1	10 µM	34.1 µM
CCOC(=O)C(Cc1ccc(CCCC(=O)NCCC(=O)Nc2ccc3nc(C)sc3c2)cc1)C(=O)OCC	> 62.4 µM	> 100 µM
NCCNc1c2c(c(NCCN)c3[nH]ccc13)C(=O)c1ccccc1C2=O	0.766 µM	2.88 µM
